Measured values reported in PMC5063576, “High Potency VEGFRs/MET/FMS Triple Blockade by TAS-115 Concomitantly Suppresses Tumor Progression and Bone Destruction in Tumor-Induced Bone Disease Model with Lung Carcinoma Cells” (PLoS ONE, 2016).

How the values were obtained:
[1] = Body weight change in the bone disease model; assay type: in vivo, BALB/c nude mice; conditions: 4 weeks of treatment; TAS-115 200 mg/kg, crizotinib 100 mg/kg, sunitinib 40 mg/kg with crizotinib 100 mg/kg, oral once daily
Method: Changes in body weight (BW) during the dosing period were determined using body weight change (BWC; %) as an indicator, which was calculated using the following formula: BWC; % = 100 × ((BW on each measurement day)–(BWday 0)) / (BWday 0). BWday 0 is the BW on the allocation day. The schedule for the in vivo study is depicted in the Supporting Information (S1 Fig).

[2] = system: A549-Luc-BM1-implanted tibiae; experiment: CD31 staining, microvessel density in bone lesion; assay type: in vivo, BALB/c nude mice; conditions: 2 weeks oral; TAS-115 100 mg/kg, cabozantinib 15, crizotinib 100, sunitinib 40 mg/kg; vs control
Method: On day 15, the mice were euthanized by cervical dislocation under isoflurane anesthesia, and their tibiae were collected. For CD31 staining, frozen sections (3 μm thick) were prepared using Kawamoto’s film method. Purified Rat Anti-Mouse CD31 (1:100, BD Pharmingen^TM) was detected using Simple Stain^TM Mouse MAX PO (Rat) (Nichirei) and 3,3’-diaminobenzidine (Dako, Glostrup, Denmark). For Ki-67 and TRAP staining, formalin-fixed paraffin-embedded sections (2 μm thick) were prepared. Anti-human Ki-67 Rabbit Monoclonal Antibody (1:50, Epitomics) was detected using the EnVisionTM^+ System (Dako). TRAP staining was performed using the TRAP/ALP Stain Kit (Wako Pure chemical Industries, Ltd.). To quantify each staining, whole slides were scanned under 20× magnification with the Aperio Scan-Scope XT Slide Scanner (Aperio Technologies, Inc., CA). To quantify CD31-positive microvessels as microvessel density (MVD, number/mm^2), four fields of tumor area per section excluding bone and necrotic tissue were analyzed by using Image-Pro Plus (Media Cybernetics, Inc., Carlsbad, CA). The mean values of the four areas were considered as the MVD of each animal. […] Ki-67-positive cells and total tumor cells were counted by using Image-Pro Plus. The Ki-67 index is expressed as a percentage (the number of Ki-67-positive tumor cells / the total number of the tumor cells × 100). The numbers of TRAP-positive osteoclasts were counted, and are expressed as the TRAP-positive osteoclast labeling index, (the number of TRAP-positive cells / the length of the boundary between tumor and trabecular bone (number/mm)). Cells that were TRAP-positive, had more than one nucleus, and were found on the surface of the bone, were identified as osteoclasts. The boundary length was calculated by Image-Pro Plus. All histopathological analyses were conducted in a blinded manner.

For `CNC(=O)c1cc2c(Oc3ccc(NC(=S)NC(=O)Cc4ccccc4)cc3F)ccnc2cc1OC` [TAS-115, 4-[2-fluoro-4-[[[(2-phenylacetyl)amino]thioxomethyl]amino]-phenoxy] -7-methoxy-N-methyl-6-quinolinecarboxamide], the “effect on body weight” value [1] was “did not cause body weight loss” and the “microvessel density (MVD) within the tumor area in the bone lesion” value [2] was “significantly reduced”.
